Columns and labels:
Test in all cases: biochemical
Design in all cases: KINOMEscan active-site competition binding panel (468 kinase assays), per cent of control at 1000 nM
Details in all cases: KINOMEscan per cent of control (binding competition); read-out: Percent Control
ALK(L1196M) = ALK(L1196M) (Homo sapiens, UniProt Q9UM73, L1196M)
Excerpt: (§1) Figure S7 / Percent Control

BMX = BMX (Homo sapiens, UniProt P51813)
Excerpt: as §1

CSNK1G3 = CSNK1G3 (Homo sapiens, UniProt Q9Y6M4)
Excerpt: as §1

CSNK2A2 = CSNK2A2 (Homo sapiens, UniProt P19784)
Chain of CSNK2A2 (P19784 whole entry): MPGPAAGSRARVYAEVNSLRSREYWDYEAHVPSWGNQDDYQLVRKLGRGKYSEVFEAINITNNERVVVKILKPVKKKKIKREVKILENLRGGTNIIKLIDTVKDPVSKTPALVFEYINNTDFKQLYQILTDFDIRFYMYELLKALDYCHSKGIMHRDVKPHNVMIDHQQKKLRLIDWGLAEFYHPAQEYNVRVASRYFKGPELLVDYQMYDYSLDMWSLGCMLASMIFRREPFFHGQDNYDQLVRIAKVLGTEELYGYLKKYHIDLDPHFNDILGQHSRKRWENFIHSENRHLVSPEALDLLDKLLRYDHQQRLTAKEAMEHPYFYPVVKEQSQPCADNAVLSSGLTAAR
Excerpt: as §1

DAPK2 = DAPK2 (Homo sapiens, UniProt Q9UIK4)
Chain of DAPK2 (Q9UIK4 whole entry): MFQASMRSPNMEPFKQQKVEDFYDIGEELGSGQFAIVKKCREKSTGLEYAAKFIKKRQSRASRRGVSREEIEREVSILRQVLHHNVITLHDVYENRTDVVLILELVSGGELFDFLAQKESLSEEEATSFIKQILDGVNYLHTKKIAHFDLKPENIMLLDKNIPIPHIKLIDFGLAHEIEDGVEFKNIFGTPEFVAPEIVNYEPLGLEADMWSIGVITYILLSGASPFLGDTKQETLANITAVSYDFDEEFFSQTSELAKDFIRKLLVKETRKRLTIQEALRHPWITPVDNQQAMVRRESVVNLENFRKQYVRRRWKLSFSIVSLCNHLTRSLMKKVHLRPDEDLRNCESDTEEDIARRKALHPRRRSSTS
Excerpt: as §1

DYRK1A = DYRK1A (Homo sapiens, UniProt Q13627)
Excerpt: as §1

EGFR(L861Q) = EGFR(L861Q) (Homo sapiens, UniProt P00533, L861Q)
Chain of EGFR(L861Q) (P00533 whole entry L861Q): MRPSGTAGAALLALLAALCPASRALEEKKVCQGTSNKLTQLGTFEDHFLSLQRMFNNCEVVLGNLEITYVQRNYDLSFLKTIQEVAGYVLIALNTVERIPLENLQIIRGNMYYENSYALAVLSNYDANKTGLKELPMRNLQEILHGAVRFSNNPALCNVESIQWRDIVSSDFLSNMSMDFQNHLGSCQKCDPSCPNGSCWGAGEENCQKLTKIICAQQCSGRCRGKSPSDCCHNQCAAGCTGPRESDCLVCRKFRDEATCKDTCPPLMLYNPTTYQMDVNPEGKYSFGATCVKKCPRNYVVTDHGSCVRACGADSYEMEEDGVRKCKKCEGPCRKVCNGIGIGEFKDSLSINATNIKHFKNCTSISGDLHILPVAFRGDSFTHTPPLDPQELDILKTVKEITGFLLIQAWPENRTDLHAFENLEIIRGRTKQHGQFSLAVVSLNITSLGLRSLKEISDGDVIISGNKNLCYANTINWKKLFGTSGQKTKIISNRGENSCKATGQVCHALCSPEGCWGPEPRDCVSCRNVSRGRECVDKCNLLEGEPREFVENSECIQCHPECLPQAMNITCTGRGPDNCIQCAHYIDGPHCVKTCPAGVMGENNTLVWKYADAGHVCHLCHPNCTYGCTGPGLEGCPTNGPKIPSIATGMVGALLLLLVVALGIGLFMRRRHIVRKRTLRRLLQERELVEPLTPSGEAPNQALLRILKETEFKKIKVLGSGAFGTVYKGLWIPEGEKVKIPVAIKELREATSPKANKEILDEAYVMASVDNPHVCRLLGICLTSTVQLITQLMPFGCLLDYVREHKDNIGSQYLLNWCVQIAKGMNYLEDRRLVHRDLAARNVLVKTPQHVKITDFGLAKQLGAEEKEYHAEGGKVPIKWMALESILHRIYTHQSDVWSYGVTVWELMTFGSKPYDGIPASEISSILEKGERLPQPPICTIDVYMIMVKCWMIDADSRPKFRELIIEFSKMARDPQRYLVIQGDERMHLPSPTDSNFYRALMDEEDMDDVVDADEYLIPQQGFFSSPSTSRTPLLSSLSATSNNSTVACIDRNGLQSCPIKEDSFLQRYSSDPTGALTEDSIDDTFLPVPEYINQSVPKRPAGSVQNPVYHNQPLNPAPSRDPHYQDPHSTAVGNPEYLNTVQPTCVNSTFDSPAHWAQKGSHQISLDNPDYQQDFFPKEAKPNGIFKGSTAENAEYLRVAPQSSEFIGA
Excerpt: as §1

EGFR(S752-I759del) = EGFR(S752-I759del) (Homo sapiens, UniProt P00533, DEL752-759)
Chain of EGFR(S752-I759del) (P00533 with tags, fused parts or gaps DEL752-759): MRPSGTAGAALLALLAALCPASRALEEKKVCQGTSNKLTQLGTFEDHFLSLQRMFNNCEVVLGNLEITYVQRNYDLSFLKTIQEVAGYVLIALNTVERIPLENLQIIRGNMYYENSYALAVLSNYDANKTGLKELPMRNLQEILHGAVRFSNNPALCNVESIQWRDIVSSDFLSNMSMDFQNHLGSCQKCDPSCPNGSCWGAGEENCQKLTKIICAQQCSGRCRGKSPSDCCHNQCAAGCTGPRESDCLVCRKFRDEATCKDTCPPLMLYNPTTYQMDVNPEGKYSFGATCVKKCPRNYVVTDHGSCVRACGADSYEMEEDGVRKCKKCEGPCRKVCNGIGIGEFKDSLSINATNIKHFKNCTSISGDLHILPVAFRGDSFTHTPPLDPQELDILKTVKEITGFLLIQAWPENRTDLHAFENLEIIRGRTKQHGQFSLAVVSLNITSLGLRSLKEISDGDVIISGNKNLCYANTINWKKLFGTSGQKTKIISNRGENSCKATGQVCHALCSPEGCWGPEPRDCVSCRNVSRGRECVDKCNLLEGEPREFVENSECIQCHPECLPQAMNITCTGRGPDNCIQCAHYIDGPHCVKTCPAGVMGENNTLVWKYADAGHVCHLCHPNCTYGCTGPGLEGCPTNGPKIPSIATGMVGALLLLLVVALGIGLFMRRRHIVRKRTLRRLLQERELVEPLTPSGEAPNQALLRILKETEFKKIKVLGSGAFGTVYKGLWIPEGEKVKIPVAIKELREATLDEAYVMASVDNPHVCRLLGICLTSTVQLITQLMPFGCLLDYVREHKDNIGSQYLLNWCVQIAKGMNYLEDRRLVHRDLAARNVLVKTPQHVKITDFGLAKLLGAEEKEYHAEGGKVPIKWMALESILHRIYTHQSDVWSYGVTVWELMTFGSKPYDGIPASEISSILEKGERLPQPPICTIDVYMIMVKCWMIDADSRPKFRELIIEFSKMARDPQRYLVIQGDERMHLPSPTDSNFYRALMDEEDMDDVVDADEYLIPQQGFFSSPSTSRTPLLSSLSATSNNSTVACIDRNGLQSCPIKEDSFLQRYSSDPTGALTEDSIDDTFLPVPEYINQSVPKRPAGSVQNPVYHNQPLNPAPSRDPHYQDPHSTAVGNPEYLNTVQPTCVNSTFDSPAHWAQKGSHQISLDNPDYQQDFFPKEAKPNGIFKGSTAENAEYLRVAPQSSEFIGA
Excerpt: as §1

FLT3(ITD) = FLT3(ITD) (Homo sapiens, UniProt P36888, ITD)
Excerpt: as §1

HASPIN = HASPIN (Homo sapiens, UniProt Q8TF76)
Chain of HASPIN (Q8TF76 whole entry): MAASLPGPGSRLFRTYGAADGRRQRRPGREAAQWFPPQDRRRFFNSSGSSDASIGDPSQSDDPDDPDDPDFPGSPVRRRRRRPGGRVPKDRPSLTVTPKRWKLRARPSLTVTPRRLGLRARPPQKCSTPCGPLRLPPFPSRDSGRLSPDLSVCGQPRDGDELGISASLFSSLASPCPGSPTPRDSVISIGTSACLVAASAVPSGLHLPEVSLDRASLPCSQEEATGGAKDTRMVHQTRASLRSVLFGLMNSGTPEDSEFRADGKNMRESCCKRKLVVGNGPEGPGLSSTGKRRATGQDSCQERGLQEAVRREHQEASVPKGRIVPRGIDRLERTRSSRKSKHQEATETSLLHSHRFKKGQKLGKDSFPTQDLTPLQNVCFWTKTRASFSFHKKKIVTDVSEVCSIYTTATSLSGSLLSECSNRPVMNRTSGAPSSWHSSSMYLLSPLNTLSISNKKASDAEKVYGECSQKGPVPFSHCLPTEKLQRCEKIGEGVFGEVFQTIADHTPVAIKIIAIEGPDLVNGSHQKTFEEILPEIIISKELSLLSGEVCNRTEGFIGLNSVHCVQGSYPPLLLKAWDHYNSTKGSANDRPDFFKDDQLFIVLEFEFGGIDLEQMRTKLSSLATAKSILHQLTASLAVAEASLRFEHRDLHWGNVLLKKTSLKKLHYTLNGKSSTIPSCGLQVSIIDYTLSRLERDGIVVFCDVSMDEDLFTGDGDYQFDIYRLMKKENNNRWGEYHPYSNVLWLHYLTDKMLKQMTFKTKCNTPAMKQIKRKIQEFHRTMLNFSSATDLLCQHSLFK
Excerpt: as §1

IRAK4 = IRAK4 (Homo sapiens, UniProt Q9NWZ3)
Excerpt: as §1

[1] = target: T1, JAK1(JH1domain-catalytic) (Homo sapiens, UniProt P23458)
T1 construct: JH1domain-catalytic
Excerpt: as §1

KIT(D816V) = KIT(D816V) (Homo sapiens, UniProt P10721, D816V)
Excerpt: as §1

KIT(V559D,T670I) = KIT(V559D,T670I) (Homo sapiens, UniProt P10721, T670I/V559D)
Excerpt: as §1

PAK1 = PAK1 (Homo sapiens, UniProt Q13153)
Excerpt: as §1

PIK3C2B = PIK3C2B (Homo sapiens, UniProt O00750)
Excerpt: as §1

PIK3C2G = PIK3C2G (Homo sapiens, UniProt O75747)
Excerpt: as §1

PKMYT1 = PKMYT1 (Homo sapiens, UniProt Q99640)
Excerpt: as §1

RIPK2 = RIPK2 (Homo sapiens, UniProt O43353)
Chain of RIPK2 (O43353 whole entry): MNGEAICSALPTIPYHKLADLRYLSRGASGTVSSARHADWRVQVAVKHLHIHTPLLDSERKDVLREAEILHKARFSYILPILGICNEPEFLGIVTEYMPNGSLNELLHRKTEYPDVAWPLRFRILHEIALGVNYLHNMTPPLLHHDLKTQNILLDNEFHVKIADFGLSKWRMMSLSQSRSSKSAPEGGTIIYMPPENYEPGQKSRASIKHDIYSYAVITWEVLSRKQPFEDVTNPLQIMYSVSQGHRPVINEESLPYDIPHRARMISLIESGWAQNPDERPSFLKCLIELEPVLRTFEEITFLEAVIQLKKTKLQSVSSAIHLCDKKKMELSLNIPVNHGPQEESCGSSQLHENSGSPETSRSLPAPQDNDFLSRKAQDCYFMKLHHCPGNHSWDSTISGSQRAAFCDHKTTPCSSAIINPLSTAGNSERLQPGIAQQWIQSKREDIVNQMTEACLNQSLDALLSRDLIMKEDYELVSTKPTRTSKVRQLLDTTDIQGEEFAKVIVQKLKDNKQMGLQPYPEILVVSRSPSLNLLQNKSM
Excerpt: as §1

[2] = target: T2, RSK3(Kin.Dom.2-C-terminal) (Homo sapiens, UniProt Q15349)
T2 construct: gene RPS6KA2; Kin.Dom.2-C-terminal
Excerpt: as §1

SGK2 = SGK2 (Homo sapiens, UniProt Q9HBY8)
Excerpt: as §1

TEC = TEC (Homo sapiens, UniProt P42680)
Excerpt: as §1

TNNI3K = TNNI3K (Homo sapiens, UniProt Q59H18)
Excerpt: as §1

VRK2 = VRK2 (Homo sapiens, UniProt Q86Y07)
Excerpt: as §1

Chain of CSNK1G3 (Q9Y6M4 whole entry): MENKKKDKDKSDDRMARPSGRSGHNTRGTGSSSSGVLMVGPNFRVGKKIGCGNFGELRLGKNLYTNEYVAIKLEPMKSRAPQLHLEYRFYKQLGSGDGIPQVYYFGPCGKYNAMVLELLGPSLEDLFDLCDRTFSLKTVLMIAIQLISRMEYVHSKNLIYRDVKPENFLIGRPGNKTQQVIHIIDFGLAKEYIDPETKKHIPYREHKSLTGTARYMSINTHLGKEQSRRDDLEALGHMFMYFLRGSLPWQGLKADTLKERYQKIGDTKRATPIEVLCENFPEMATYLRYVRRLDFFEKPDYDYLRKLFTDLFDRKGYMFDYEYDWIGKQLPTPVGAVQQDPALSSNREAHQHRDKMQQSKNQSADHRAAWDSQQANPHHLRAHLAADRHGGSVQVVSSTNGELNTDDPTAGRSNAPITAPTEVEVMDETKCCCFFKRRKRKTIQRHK

In the case of `Cn1c(=O)[nH]c2ccc(-c3cccc(C(=O)NC4CCn5ccnc5C4)c3)cc21` (stereo not drawn) [Z36-MP5], the remaining binding at 1 µM (ALK(L1196M)) is reported as 78%, the remaining binding at 1 µM (BMX) is reported as 100% and the remaining binding at 1 µM (CSNK1G3) is reported as 74%. It also gave a remaining binding at 1 µM (CSNK2A2) of 63%, a remaining binding at 1 µM (DAPK2) of 93% and a remaining binding at 1 µM (DYRK1A) of 60%. For the same molecule, the remaining binding at 1 µM (EGFR(L861Q)) was 69%, the remaining binding at 1 µM (EGFR(S752-I759del)) was 55% and the remaining binding at 1 µM (FLT3(ITD)) was 92%. It also gave a remaining binding at 1 µM (HASPIN) of 71%, a remaining binding at 1 µM (IRAK4) of 78% and a remaining binding at 1 µM [1] of 96%. It also gave a remaining binding at 1 µM (KIT(D816V)) of 58%, a remaining binding at 1 µM (KIT(V559D,T670I)) of 86% and a remaining binding at 1 µM (PAK1) of 87%. It also gave a remaining binding at 1 µM (PIK3C2B) of 87%, a remaining binding at 1 µM (PIK3C2G) of 100% and a remaining binding at 1 µM (PKMYT1) of 93%. The remaining binding at 1 µM (RIPK2) was 94%, the remaining binding at 1 µM [2] was 81% and the remaining binding at 1 µM (SGK2) was 64%. It also gave a remaining binding at 1 µM (TEC) of 98%, a remaining binding at 1 µM (TNNI3K) of 96% and a remaining binding at 1 µM (VRK2) of 72%.

Reference: publication PMC10924921, “Mi-2β promotes immune evasion in melanoma by activating EZH2 methylation” (Nature Communications, 2024)
